Data from patent US11141455B2, “Peptide analogues with branched amino acid probe(s)” (priority 2014, dated 2021).
Where a SMILES comes first, the peptide text is derived from it.

Key:
MC3r = target: T1, MC3r (Homo sapiens, UniProt P41968); assay: Radioligand binding, displacement of 125I-NDP-αMSH (Cerep); details: Example 2, α-MSH analogues
T1 construct: 0959 (cAMP); host or cells: CHO cells
Experimental: Murine B16-F1 cells expressing MCr1 are used for determination of binding affinity to and agonist activity against the MC1r. Human recombinant CHO cells expressing MC3r, MC4r or MC5r are used for determination of affinity to or agonist activity against the MC3r, MC4r and MC5r, respectively. […] The test items are tested in a concentration range of 10^−13 to 10^−5M.

human GLP-1 receptor = target: T2, human GLP-1 receptor (Homo sapiens, UniProt P43220); assay: cAMP production (HTRF) in CHO-K1 cells expressing GLP-1 receptor; assay type: cell-based; details: CHO-K1; read-out: Max efficacy in % of control peptide
T2 construct: expressed in transfected cells; host or cells: CHO-K1 cells

[1] = target: T3, recombinant human type 2 Formyl peptide receptor (FPR2) (Homo sapiens, UniProt P25090); assay: Aequorin light emission agonist assay in recombinant FPR2 cells; assay type: cell-based; details: at the highest tested dose; read-out: maximal agonist activity, % of max response of internal control Trp-Lys-Tyr-Met-Val-Met
T3 construct: expressed in transfected cells
T3 sequence (P25090 1-351): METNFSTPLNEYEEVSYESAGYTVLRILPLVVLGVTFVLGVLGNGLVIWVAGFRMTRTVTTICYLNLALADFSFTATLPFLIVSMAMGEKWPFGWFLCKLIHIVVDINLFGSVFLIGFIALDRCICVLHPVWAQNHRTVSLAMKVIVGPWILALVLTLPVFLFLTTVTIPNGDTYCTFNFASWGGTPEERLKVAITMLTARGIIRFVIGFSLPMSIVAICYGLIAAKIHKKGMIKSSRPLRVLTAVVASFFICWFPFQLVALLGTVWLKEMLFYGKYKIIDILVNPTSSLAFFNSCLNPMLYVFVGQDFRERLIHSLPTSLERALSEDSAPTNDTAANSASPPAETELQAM
Experimental: Recombinant cells co-expressing mitochondrial apoaequirin and recombinant human type 2 Formyl peptide receptor (FPR2) were grown for 18 hours prior to testing in media without antibiotics were detached by gentle flushing with PBS-EDTA (5 mM EDTA), recovered by centrifugation and re-suspended in assay buffer (DHEM/HAM's F12 with HEPES and 0.1% protease free BSA). Cells were then incubated for at least 4 hours at room temperature coelenterazine h (from Molecular Probes) before DR studies were conducted.
50 μl of cell suspension was injected on 50 μl of the test or control compound (solubilized in PBS/0.5% BSA and finally diluted from a stock solution of 1 mM) at increasing concentrations in 96 wells plates and then incubated 30 min at room temperature. The resulting light emission was recorded using the Hamamatsu functional drug Screening system 6000 (FDSS6000). For standardization of emission of recorded light across plates and between experiments 100 μM digitonin or 20 μM ATP were added to some of the wells.
The test compounds were tested in a concentration range from 10^−11 to 10^−5M
Data is presented as mean values.

T2 sequence (P43220 24-463): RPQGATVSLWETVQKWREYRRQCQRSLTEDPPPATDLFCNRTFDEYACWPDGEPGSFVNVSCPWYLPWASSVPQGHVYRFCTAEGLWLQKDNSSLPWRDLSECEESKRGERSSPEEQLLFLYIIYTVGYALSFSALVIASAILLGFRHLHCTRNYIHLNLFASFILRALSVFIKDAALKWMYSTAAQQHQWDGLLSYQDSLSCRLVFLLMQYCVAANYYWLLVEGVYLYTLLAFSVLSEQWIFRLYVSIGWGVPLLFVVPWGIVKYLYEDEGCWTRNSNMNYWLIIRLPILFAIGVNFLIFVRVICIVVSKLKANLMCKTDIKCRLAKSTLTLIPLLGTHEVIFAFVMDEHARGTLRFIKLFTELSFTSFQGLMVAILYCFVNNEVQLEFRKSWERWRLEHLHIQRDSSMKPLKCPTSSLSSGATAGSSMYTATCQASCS
T1 sequence (P41968 whole entry): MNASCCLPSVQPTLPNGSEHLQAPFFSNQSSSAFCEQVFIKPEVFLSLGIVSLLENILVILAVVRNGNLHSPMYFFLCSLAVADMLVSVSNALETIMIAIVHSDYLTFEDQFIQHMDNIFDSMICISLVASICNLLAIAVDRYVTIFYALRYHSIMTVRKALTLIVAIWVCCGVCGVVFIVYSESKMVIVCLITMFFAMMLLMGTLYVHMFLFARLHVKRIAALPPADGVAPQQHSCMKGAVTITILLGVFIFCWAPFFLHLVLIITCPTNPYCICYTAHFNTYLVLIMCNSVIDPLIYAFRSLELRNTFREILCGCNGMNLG

Structure (SMILES)	Ki (MC3r) [nM]	Emax (human GLP-1 receptor) [%]	Emax [1] [%]
CSCC[C@H](NC(=O)[C@H](CO)NC(=O)[C@H](Cc1ccc(O)cc1)NC(=O)[C@H](CO)NC(=O)[C@H](CCCCNC(=O)[C@H](CCCCN)NC(=O)[C@H](CCCCN)NC(C)=O)NC(C)=O)C(=O)N[C@@H](CCC(=O)O)C(=O)N[C@@H](Cc1c[nH]cn1)C(=O)N[C@@H](Cc1ccccc1)C(=O)N[C@@H](CCCNC(=N)N)C(=O)N[C@@H](Cc1c[nH]c2ccccc12)C(=O)NCC(=O)N[C@@H](CCCCN)C(=O)N1CCC[C@H]1C(=O)N[C@H](C(N)=O)C(C)C [Analogue 1]	24	101	
CSCC[C@H](NC(=O)[C@H](C)NC(C)=O)C(=O)N[C@H](C(=O)N[C@@H](CO)C(=O)N[C@@H](CCC(=O)O)C(=O)N[C@@H](Cc1ccccc1)C(=O)N[C@@H](CC(C)C)C(=O)N[C@@H](CCCCNC(=O)[C@H](CCCCN)NC(=O)[C@H](CCCCNC(=O)[C@H](CCCCN)NC(C)=O)NC(C)=O)C(=O)N[C@@H](CCC(N)=O)C(=O)N[C@@H](C)C(=O)N[C@@H](Cc1c[nH]c2ccccc12)C(N)=O)C(C)C [analogue 7] (HELM PEPTIDE1{[ac].A.M.V.S.E.F.L.K.Q.A.W.[am]}|PEPTIDE2{[CC(=O)N[C@@H](CCCCN)C(=O)NCCCC[C@H](NC(C)=O)C(=O)[*:2]].K}$PEPTIDE1,PEPTIDE2,9:R3-2:R2$$$V2.0)			85
